Experimental data as given in article PMC10146204, “Inhibition of Acetylcholinesterase by Novel Lupinine Derivatives” (Molecules, 2023).
Entries after “also recorded” stand apart in the source; their conditions may differ. Where two headings read alike, the source gives them in different places.

Columns and labels:
AChE [1] = molecular target: T1, AChE (Homo sapiens, UniProt P22303); experiment: biochemical; assay type: biochemical; conditions: for Observed class for AChE inhibitory activity: Experimentally determined class, Active or NA
T1 construct: purchased Sigma-Aldrich Chemical Co
T1 sequence (P22303 32-614): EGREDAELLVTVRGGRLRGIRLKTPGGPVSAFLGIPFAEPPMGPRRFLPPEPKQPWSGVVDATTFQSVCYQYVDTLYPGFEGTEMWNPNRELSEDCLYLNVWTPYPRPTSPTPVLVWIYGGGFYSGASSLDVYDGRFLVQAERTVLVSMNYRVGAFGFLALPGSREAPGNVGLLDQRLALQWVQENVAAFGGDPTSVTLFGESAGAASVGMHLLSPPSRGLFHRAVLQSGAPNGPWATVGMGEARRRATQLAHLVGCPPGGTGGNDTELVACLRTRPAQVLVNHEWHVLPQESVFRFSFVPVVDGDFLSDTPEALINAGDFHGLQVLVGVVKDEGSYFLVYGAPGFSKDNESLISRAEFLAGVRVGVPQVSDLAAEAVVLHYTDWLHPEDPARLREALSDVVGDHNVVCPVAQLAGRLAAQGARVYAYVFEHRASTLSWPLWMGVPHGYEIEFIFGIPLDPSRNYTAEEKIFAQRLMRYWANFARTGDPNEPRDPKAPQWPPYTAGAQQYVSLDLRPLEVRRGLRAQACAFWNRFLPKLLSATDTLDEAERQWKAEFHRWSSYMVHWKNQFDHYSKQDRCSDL
Source text: The kit is based on an improved Ellman method, whereby thiocholine produced from AChE activity forms a yellow color with 5,5′-dithiobis(2-nitrobenzoic acid), and the intensity the color (412 nm) is proportional to the enzyme activity.

AChE [2] = molecular target: T1, AChE; conditions: previously reported AChE inhibitors with a 4-benzyloxyphenyl moiety; ref [36],[37],[38]; read-out: AChE inhibitory activity IC50 of previously reported inhibitors; cited from earlier work
[3] = system: human THP-1 monocytic cells; experiment: Cytotoxicity assay (CellTiter-Glo Luminescent Cell Viability Assay); assay type: cell-based; conditions: THP-1 cells, concentrations up to 50 μM, 24 h
Method: The cytotoxicity of the synthesized compounds was analyzed using a CellTiter-Glo Luminescent Cell Viability Assay Kit (Promega, Madison, WI, USA) according to the manufacturer’s protocol. Human THP-1 monocytic cells obtained from ATCC (Manassas, VA, USA) were cultured in RPMI 1640 medium (Mediatech Inc., Herndon, VA, USA) supplemented with 10% (v/v) FBS, 100 μg/mL streptomycin, and 100 U/mL penicillin. For the cytotoxicity assay, the cells were cultured at a density of 10^4 cells/well with different concentrations of the test compounds added ([…], 12.5, 25, 50 μM; final concentration of DMSO was 1%) for 24 h at 37 °C and 5% CO2. Following treatment, substrate was added to the cells, and the samples were analyzed with a Fluoroscan Ascent FL microplate reader.

[4] = N.A.: no activity was observed at the highest concentration tested (150 µM), 5–7 tested concentrations, read-out: AChE inhibitory activity IC50

| Compound | IC50 (AChE [1]; [4]) [µM] | further results |
| --- | --- | --- |
| COc1cc(-c2cn(C[C@@H]3CCCN4CCCC[C@H]34)nn2)ccc1OCc1ccccc1 [Compound 15, (1S,9aR)-1-((4-(4-(benzyloxy)-3-methoxyphenyl)-1H-1,2,3-triazol-1-yl)methyl)octahydro-2H-quinolizine] | 7.2 | Mechanism of AChE inhibition (Lineweaver–Burk plot) (AChE [1]; double-reciprocal Lineweaver–Burk plot): mixed type of inhibition; also recorded: mixed-type mechanism |
| COc1cc(/C=C/C(=O)NCCNc2cc(C)nc3ccccc23)ccc1OCc1ccccc1 [Compound C, (E)-3-(4-(benzyloxy)-3-methoxyphenyl)-N-(2-((2-methylquinolin-4-yl)amino)ethyl)acrylamide] | – | IC50 (AChE [2]): 0.6 µM |
| O=Cc1ccc(OCc2cn(C[C@@H]3CCCN4CCCC[C@H]34)nn2)cc1 [Compound 17] | 68.1 ± 2.2 | – |
| CCc1nnc(/N=C2\NC(=O)/C(=C\c3ccc(OCc4ccccc4)cc3)S2)s1 [Compound B, (E)-5-((E)-4-(benzyloxy)benzylidene)-2-((5-ethyl-1,3,4-thiadiazol-2-yl)imino)thiazolidin-4-one] | – | IC50 (AChE [2]): 1.2 µM |
| [(1R,9aR)-octahydro-2H-quinolizin-1-yl]methane [Lupinine] | – | Cytotoxicity [3]: no cytotoxicity |
| COc1cccc(-c2cn(C[C@@H]3CCCN4CCCC[C@H]34)nn2)c1 [Compound 13] | 51.8 ± 9.2 | – |
| Nc1nc(SCc2cn(C[C@@H]3CCCN4CCCC[C@H]34)nn2)n[nH]1 [Compound 5, 3-((1-(((1S,9aR)-Octahydro-1H-quinolizine-1-yl)methyl)-1H-1,2,3-triazole-4-yl)methylthio)-1H-1,2,4-triazole-5-amine] | 101 ± 23.9 | – |
| CCc1cc(C(=O)OCc2cn(C[C@@H]3CCCN4CCCC[C@H]34)nn2)c(O)c(C(C)(C)C)c1 [Compound 16] | 141 ± 15.3 | – |
| CC1(C)CC(=O)c2c(C(=O)OC[C@@H]3CCCN4CCCC[C@H]34)coc2C1 [Compound 25] | 24.4 ± 3.4 | Observed class for AChE inhibitory activity (AChE [1]): Active |
| Cc1cc(C)c(C(=O)OC[C@@H]2CCCN3CCCC[C@H]23)cc1C [Compound 64] | 74.1 ± 6.8 | – |
| O=C(CCCCl)OC[C@@H]1CCCN2CCCC[C@H]12 [Compound 22] | – | IC50 (AChE [1]): 39.5 ± 7.2 µM; Observed class for AChE inhibitory activity (AChE [1]): Active |
| O=C1CC(C(=O)OC[C@@H]2CCCN3CCCC[C@H]23)C2(CCCCC2)O1 (some centres unmarked) [Compound 44] | 68.9 ± 5.8 | – |
| O=C(Nc1ccc(Cl)c(Cl)c1)OC[C@@H]1CCCN2CCCC[C@H]12 [Compound 41] | – | IC50 (AChE [1]): 99.4 ± 12.3 µM |
| Cn1c(/C=N/Nc2ccc(OCc3ccccc3)cc2)nc2ccccc21 [Compound A, (E)-2-((2-(4-(benzyloxy)phenyl)hydrazineylidene)methyl)-1-methylbenzimidazole] | – | IC50 (AChE [2]): 11.8 µM |
| COc1cccc(/C=C/C(=O)OC[C@@H]2CCCN3CCCC[C@H]23)c1OC [Compound 49] | 111 ± 12.5 | – |
| COc1ccccc1/C=C/C(=O)OC[C@@H]1CCCN2CCCC[C@H]12 [Compound 43] | 89.6 ± 7.7 | – |
| CCOc1cc(C=O)ccc1OCc1cn(C[C@@H]2CCCN3CCCC[C@H]23)nn1 [Compound 7, 3-Ethoxy-4-((1-(((1S,9aR)-octahydro-1H-quinolizine-1-yl)methyl)-1H-1,2,3-triazole-4-yl)methoxy)benzaldehyde] | 73.4 ± 16.7 | – |
